Measurements taken from ChEMBL document CHEMBL1154960, “Development of improved inhibitors of wall teichoic acid biosynthesis with potent activity against Staphylococcus aureus” (Bioorg Med Chem Lett, 2010).
In brackets after ≈: the same amount, converted by molar mass. Activity calls are given as the source filed them. No cut-off for these calls is given here.

How the values were obtained:
Staphylococcus aureus [1] = experiment: Antibacterial activity against Staphylococcus aureus RN4220 assessed as growth inhibition at 100 uM after 12 hrs by optical density plate reader method; format: functional
Staphylococcus aureus [2] = experiment: Antibacterial activity against Staphylococcus aureus RN4220 after 12 hrs by optical density plate reader method; format: functional
Staphylococcus aureus [3] = experiment: Antibacterial activity against tarO deficient Staphylococcus aureus RN4220 assessed as growth inhibition at 100 uM after 12 hrs by optical density plate reader method; format: functional; details: RN4220, 12 h, read-out: GI
Staphylococcus aureus [4] = experiment: Antibacterial activity against tarO deficient Staphylococcus aureus RN4220 assessed as cell survival at 100 uM after 12 hrs by optical density plate reader method; format: functional; details: RN4220, 12 h
Staphylococcus aureus [5] = experiment: Antibacterial activity against Staphylococcus aureus RN4220 assessed as cell survival at 100 uM after 12 hrs by optical density plate reader method; format: functional; details: RN4220, 12 h
Staphylococcus aureus [6] = experiment: Antibacterial activity against methicillin-resistant Staphylococcus aureus COL after 12 hrs by optical density plate reader method; format: functional
Staphylococcus aureus [7] = experiment: Antibacterial activity against methicillin-sensitive Staphylococcus aureus Newman after 12 hrs by optical density plate reader method; format: functional
Staphylococcus aureus [8] = experiment: Antibacterial activity against Staphylococcus aureus RN4220 after 12 hrs by optical density plate reader method in presence of 50% fetal bovine serum; format: functional
Mus musculus [9] = experiment: Toxicity in CD1 mouse at 100 mg/kg, iv; format: organism-based; design: dose 100 mg/kg, route intravenous; details: in vivo
Mus musculus [10] = experiment: Toxicity in CD1 mouse at 75 mg/kg, iv after 24 hrs; format: organism-based; design: dose 75 mg/kg, route intravenous; details: in vivo
Staphylococcus aureus [11] = experiment: Antibacterial activity against methicillin-sensitive Staphylococcus aureus RN6390 after 12 hrs by optical density plate reader method; format: functional; details: RN6390, 12 h
Staphylococcus aureus [12] = experiment: Antibacterial activity against methicillin-resistant Staphylococcus aureus MW2 after 12 hrs by optical density plate reader method; format: functional; details: MW2, 12 h
Staphylococcus aureus [13] = experiment: Antibacterial activity against tarO deficient Staphylococcus aureus RN4220 after 12 hrs by optical density plate reader method; format: functional; details: RN4220, 12 h
Staphylococcus aureus [14] = experiment: Bacteriostatic activity against Staphylococcus aureus RN4220 assessed as reduction in CFU at 8 times MIC up to 8 hrs by kill curve analysis; format: functional, organism-based
[15] = Staphylococcus aureus, RN4220, 12 h, read-out: GI
[16] = Staphylococcus aureus, RN4220, 12 h, read-out: MIC

Row | SMILES | inhibition of growth at 100 µM (Staphylococcus aureus [1]; [15]) | inhibition of growth at 100 µM (Staphylococcus aureus [3]) | survival at 100 µM (Staphylococcus aureus [4]) | survival at 100 µM (Staphylococcus aureus [5]) | further results
1 | CCOCCN(CCOCC)c1nc2c(S(=O)(=O)c3ccc(C)cc3)nnn2c2cc(OC)c(OC)cc12 | 31% |  |  |  | 
2 | CCN(CC)c1nc2c(S(=O)(=O)c3ccccc3)nnn2c2ccc(Br)cc12 |  |  |  |  | MIC (Staphylococcus aureus [2]; [16]): 12.5 µM (≈ 5.75 µg/mL)
3 | CCCN(CCC)c1nc2c(S(=O)(=O)c3ccc(C)cc3)nnn2c2cc(OC)c(OC)cc12 |  |  |  |  | MIC (Staphylococcus aureus [2]; [16]): 6.3 µM (≈ 3.05 µg/mL)
4 | CCN(c1nc2c(S(=O)(=O)c3ccc(Cl)cc3)nnn2c2cc(OC)c(OC)cc12)C(C)C |  | < 30% |  |  | MIC (Staphylococcus aureus [2]; [16]): 2.5 µM (≈ 1.22 µg/mL)
5 | CCN(CC)c1nc2c(S(=O)(=O)c3ccccc3)nnn2c2cc3c(cc12)OCCO3 | < 30% | < 30% |  |  | 
6 | CCCCN(CC)c1nc2c(S(=O)(=O)c3ccc(C)cc3)nnn2c2cc(OC)c(OC)cc12 |  |  |  |  | MIC (Staphylococcus aureus [2]; [16]): 3.1 µM (≈ 1.5 µg/mL)
7 | COc1ccc(O)c(C2Nc3ccccc3-n3c(-c4ccccc4)c4c(=O)n(C)c(=O)n(C)c4c32)c1 (configuration not stated) |  |  | 40% | 20% | 
8 | Cc1ccc(C2Nc3ccccc3-n3c(-c4ccccc4)c4c(=O)n(C)c(=O)n(C)c4c32)o1 (configuration not stated) |  |  | 110% | 101% | 
9 | CCN(CC)c1nc2c(S(=O)(=O)c3ccccc3)nnn2c2c(Cl)cccc12 | < 30% | < 30% |  |  | 
10 | CCCN(CCOC)c1nc2c(S(=O)(=O)c3ccc(C)cc3)nnn2c2cc(OC)c(OC)cc12 | 31% |  |  |  | 
11 | Cn1c(=O)c2c(-c3ccccc3)n3c(c2n(C)c1=O)C(c1ccc(F)cc1)Nc1ccccc1-3 (configuration not stated) |  |  | 48% | 26% | 
12 | CCN(CC)c1nc2c(S(=O)(=O)c3ccc(Cl)cc3)nnn2c2cc(OC)c(OC)cc12 |  | < 30% |  |  | MIC (Staphylococcus aureus [6]): 0.6 µM (≈ 0.286 µg/mL); MIC (Staphylococcus aureus [2]; [16]): 0.3 µM (≈ 0.143 µg/mL); MIC (Staphylococcus aureus [7]): 0.3 µM (≈ 0.143 µg/mL); fold change (FC) (Staphylococcus aureus [8]): 8; Activity (Mus musculus [9]): Toxic; Activity (Mus musculus [10]): Non-toxic; MIC (Staphylococcus aureus [11]): 0.3 µM (≈ 0.143 µg/mL); MIC (Staphylococcus aureus [12]): 0.6 µM (≈ 0.286 µg/mL)
13 | COc1ccc(-c2c3c(=O)n(C)c(=O)n(C)c3c3n2-c2ccccc2NC3c2ccco2)cc1 (configuration not stated) |  |  | 69% | 57% | 
14 | CCN(c1nc2c(S(=O)(=O)c3ccc(C)cc3)nnn2c2cc(OC)c(OC)cc12)C(C)C |  |  |  |  | MIC (Staphylococcus aureus [2]; [16]): 1.6 µM (≈ 0.751 µg/mL)
15 | CCN(CC)c1nc2c(S(=O)(=O)c3ccccc3)nnn2c2cc(C)ccc12 | < 30% | < 30% |  |  | 
16 | CCN(CC)c1nc2c(S(=O)(=O)c3ccccc3)nnn2c2cc([N+](=O)[O-])ccc12 |  |  |  |  | MIC (Staphylococcus aureus [2]; [16]): 100 µM (≈ 42.6 µg/mL); MIC (Staphylococcus aureus [13]): 50 µM (≈ 21.3 µg/mL)
17 | COc1ccc(-c2c3c(=O)n(C)c(=O)n(C)c3c3n2-c2ccccc2NC3c2cc(O)ccc2O)cc1 (configuration not stated) |  |  | 26% | 0% | 
18 | COc1cc2c(N3CCc4ccccc4C3)nc3c(S(=O)(=O)c4ccc(C)cc4)nnn3c2cc1OC | 31% | > 70% |  |  | 
19 | CCN(CC)c1nc2c(S(=O)(=O)c3ccccc3)nnn2c2cccc(Cl)c12 | < 30% | < 30% |  |  | 
20 | Cc1cc2c(cc1C)-n1c(-c3ccccc3)c3c(=O)n(C)c(=O)n(C)c3c1C(c1ccco1)N2 (configuration not stated) |  |  | 103% | 94% | 

Row | SMILES | inhibition of growth at 100 µM (Staphylococcus aureus [1]; [15]) | inhibition of growth at 100 µM (Staphylococcus aureus [3]) | survival at 100 µM (Staphylococcus aureus [4]) | survival at 100 µM (Staphylococcus aureus [5]) | further results
21 | CCN(CC)c1nc2c(S(=O)(=O)c3ccccc3)nnn2c2cc(Cl)ccc12 | < 30% | < 30% |  |  | 
22 | Cn1c(=O)c2c(-c3ccc(Cl)cc3)n3c(c2n(C)c1=O)C(c1ccccc1)Nc1ccccc1-3 (configuration not stated) |  |  | 74% | 65% | 
23 | CCN(CC)c1nc2c(S(=O)(=O)c3ccccc3)nnn2c2ccc(Cl)cc12 |  | < 30% |  |  | Activity (Staphylococcus aureus [14]): Active; MIC (Staphylococcus aureus [6]): 6.3 µM (≈ 2.62 µg/mL); MIC (Staphylococcus aureus [2]; [16]): 3.6 µM (≈ 1.5 µg/mL); MIC (Staphylococcus aureus [7]): 12.5 µM (≈ 5.2 µg/mL); MIC (Staphylococcus aureus [11]): 6.3 µM (≈ 2.62 µg/mL); MIC (Staphylococcus aureus [12]): 6.3 µM (≈ 2.62 µg/mL)
24 | CCN(CC)c1nc2c(S(=O)(=O)c3ccccc3)nnn2c2cc(OC)c(OC)cc12 |  | < 30% |  |  | MIC (Staphylococcus aureus [6]): 3.1 µM (≈ 1.37 µg/mL); MIC (Staphylococcus aureus [2]; [16]): 1.8 µM (≈ 0.795 µg/mL); MIC (Staphylococcus aureus [7]): 3.1 µM (≈ 1.37 µg/mL); MIC (Staphylococcus aureus [11]): 3.1 µM (≈ 1.37 µg/mL); MIC (Staphylococcus aureus [12]): 3.1 µM (≈ 1.37 µg/mL)
25 | CCN(CC)c1nc2c(S(=O)(=O)c3ccccc3)nnn2c2ccc([N+](=O)[O-])cc12 |  |  |  |  | inhibition of growth at 100 µM (Staphylococcus aureus [1]): > 31%
26 | Cc1ccc(C2Nc3ccccc3-n3c(-c4ccccc4)c4c(=O)n(C)c(=O)n(C)c4c32)cc1 (configuration not stated) |  |  | 70% | 4% | 
27 | CCN(CC)c1nc2c(S(=O)(=O)c3ccccc3)nnn2c2ccc(C)cc12 |  | < 30% |  |  | MIC (Staphylococcus aureus [2]; [16]): 25 µM (≈ 9.89 µg/mL)
28 | Cn1c(=O)c2c(-c3ccccc3)n3c(c2n(C)c1=O)C(c1cc(Cl)ccc1O)Nc1ccccc1-3 (configuration not stated) |  |  | 78% | 35% | 
29 | COc1cc2c(N3CCN(c4ccccc4)CC3)nc3c(S(=O)(=O)c4ccc(C)cc4)nnn3c2cc1OC | > 31% | > 70% |  |  | 
30 | CCN(CC)c1nc2c(S(=O)(=O)c3ccc(C)cc3)nnn2c2cc(OC)c(OC)cc12 |  | < 30% |  |  | MIC (Staphylococcus aureus [2]; [16]): 2.5 µM (≈ 1.14 µg/mL)
31 | COc1ccc(-c2c3c(=O)n(C)c(=O)n(C)c3c3n2-c2ccccc2NC3c2ccccc2OC)cc1 (configuration not stated) |  |  | 85% | 67% | 
32 | COc1ccccc1C1Nc2ccccc2-n2c(-c3ccccc3)c3c(=O)n(C)c(=O)n(C)c3c21 (configuration not stated) |  |  | 123% | 85% | 
33 | Cc1ccc(-c2c3c(=O)n(C)c(=O)n(C)c3c3n2-c2ccccc2NC3c2ccc(C)cc2O)cc1 (configuration not stated) |  |  | 64% | 34% | 
34 | CCN(CC)c1nc2c(S(=O)(=O)c3ccccc3)nnn2c2cc(OC)ccc12 | > 31% | > 31% |  |  | 
35 | CCN(CC)c1nc2c(S(=O)(=O)c3ccccc3)nnn2c2ccc(F)cc12 | > 31% | < 30% |  |  | 
36 | CCN(CC)c1nc2c(S(=O)(=O)c3ccccc3)nnn2c2cc(Br)ccc12 | > 31% |  |  |  | MIC (Staphylococcus aureus [13]): 100 µM (≈ 46 µg/mL)
37 | COc1cc2c(N3CCCCC3)nc3c(S(=O)(=O)c4ccc(C)cc4)nnn3c2cc1OC | > 31% |  |  |  | 
38 | CCN(CC)c1nc2c(S(=O)(=O)c3ccccc3)nnn2c2ccc(OC)cc12 |  |  |  |  | MIC (Staphylococcus aureus [2]): 25 µM (≈ 10.3 µg/mL)
39 | Cn1c(=O)c2c(-c3ccccc3)n3c(c2n(C)c1=O)C(c1cccc([N+](=O)[O-])c1)Nc1ccccc1-3 (configuration not stated) |  |  | 74% | 64% | 
40 | COc1ccc(C2Nc3ccccc3-n3c(-c4ccccc4)c4c(=O)n(C)c(=O)n(C)c4c32)cc1 (configuration not stated) |  |  | 81% | 37% | 
